US12473303B2, “4-[[(7-aminopyrazolo[1,5-a]pyrimidin-5-yl)amino methyl]piperidin-3-ol compounds and their therapeutic use” (CARRICK THERAPEUTICS LIMITED, priority 2019, dated 2025)
Entries after “also recorded” stand apart in the source; their conditions may differ. Where two headings read alike, the source gives them in different places.

Experiments:
HeLa and A549 cells = details: Table 2, cited from earlier work
Cyclin K [1] = tested on: Cyclin K; set-up: key to Cyclin K Degrader Activity: −: No Cyclin K degradation.; +: Weak Cyclin K degradation.; ++: Moderate Cyclin K degradation.; +++: Strong Cyclin K degradation; details: cited from earlier work; for Cyclin K degradation (in words): literature
Cyclin K [2] = assay: Western blotting analysis of Cyclin K depletion in cell culture; type: cell-based; details: A673 cells; for Cyclin K Degrader Activity: Table 2, 1 μM compound, 2 hours
Method: Western Blotting Analysis of Cyclin K Depletion in Cell Culture A673 cells were incubated for 2 hours with of 1 μM compound in presence or in absence of 10 μM proteasome inhibitor MG132 (Sigma Aldrich) or NAE (NEDD8 activating enzyme) inhibitor […] (Cell Signalling Technologies). Cells were washed 2× with cold Phosphate Buffered Saline (PBS, Sigma Aldrich), followed by the addition of lysis buffer for 15 minutes on ice before harvesting and centrifugation.
Protein content in the cell lysate was assessed by BCA assay (Thermo Fisher). Samples were then prepared with 4× Laemmlli Buffer (Bio-Rad) and heated to 95° C. for 5 minutes. Each sample was loaded onto a Mini-PROTEAN TGX Stain Free Gel (Bio-Rad) at 50 μg protein/well. SDS-PAGE was performed and then protein was transferred onto a PVDF membrane using a Trans-Blot® Turbo™ Midi PVDF Transfer Pack (Bio-Rad. Membranes were blocked in TBS-T (Invitrogen), 5% (w/v) milk powder (Marvel) overnight at 4° C.
Membranes were incubated with anti-CCNK antibody (rabbit) primary antibody (Abcam) and anti-GAPDH antibody (rabbit) in TBS-T for 2 hours. Membranes were then washed three times with TBS-T, before incubation secondary goat anti-rabbit HRP antibody (Cell Signalling Technologies) followed by 3× washing in TBS-T. Blots were imaged using a Chemidoc imager (Bio-Rad). Cyclin K depletion was measured as the observable drop in band intensity in compound treated samples relative to proteasome-inhibitor treated samples, measured by densitometry (Image Lab).

Human CDK12 wt/CycK = Human CDK12 wt/CycK (Homo sapiens (Human), UniProt Q9NYV4); assay: Radiometric protein kinase assay (33PanQinase Activity Assay), CDK12; type: biochemical; details: for CDK7/CDK12: ratio greater than 1 indicated selectivity for CDK12
In short: (§1)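 Radiometric 33P assay: ATP, test compound (in 10% DMSO) and premixed substrate/enzyme incubated 60 min at 30 °C, stopped with 2% H3PO4. 33Pi incorporation counted by scintillation; least-squares curve fit.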

Human CDK7/CycH/MAT1 = Human CDK7/CycH/MAT1 (Homo sapiens (Human), UniProt P50613); assay: Radiometric protein kinase assay (33PanQinase Activity Assay), CDK7; type: biochemical; details: Table 1; ATP 3 μM
In short: as §1

A673 cells = assay: Cellular potency in A673 cells; type: cell-based; details: for IC50: Homo sapiens, A673 cells
[3] = Table 1, ATP 0.3 μM, read-out: CDK12 IC50
[4] = Table 2, CDK12 kinase activity, read-out: Biochemical Potency IC50
[5] = Table 3, CDK12 kinase activity, read-out: Biochemical Potency IC50
[6] = Table 3, ratio >0.9 is an indicator of Cyclin K degradation

Chain of Human CDK7/CycH/MAT1 (P50613 whole entry): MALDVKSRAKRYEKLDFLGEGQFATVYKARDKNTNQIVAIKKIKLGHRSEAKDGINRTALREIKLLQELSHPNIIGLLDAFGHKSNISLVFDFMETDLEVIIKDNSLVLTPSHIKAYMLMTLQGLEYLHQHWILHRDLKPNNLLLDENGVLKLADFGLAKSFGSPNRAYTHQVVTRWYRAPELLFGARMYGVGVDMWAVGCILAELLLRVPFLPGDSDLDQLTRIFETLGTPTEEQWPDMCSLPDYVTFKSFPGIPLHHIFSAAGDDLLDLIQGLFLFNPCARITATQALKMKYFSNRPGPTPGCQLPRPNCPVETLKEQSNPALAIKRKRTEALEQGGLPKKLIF
Chain of Human CDK7/CycH/MAT1 (P51946 whole entry partner): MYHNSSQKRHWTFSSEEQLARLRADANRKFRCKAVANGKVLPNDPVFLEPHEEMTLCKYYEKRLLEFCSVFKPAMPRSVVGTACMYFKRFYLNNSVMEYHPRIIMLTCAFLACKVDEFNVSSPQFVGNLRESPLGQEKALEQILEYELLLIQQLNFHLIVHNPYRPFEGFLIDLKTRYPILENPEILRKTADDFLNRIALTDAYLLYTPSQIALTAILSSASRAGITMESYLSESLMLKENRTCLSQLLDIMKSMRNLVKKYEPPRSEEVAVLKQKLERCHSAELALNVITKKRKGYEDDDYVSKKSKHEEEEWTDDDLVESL
Chain of Human CDK7/CycH/MAT1 (P51948 whole entry partner): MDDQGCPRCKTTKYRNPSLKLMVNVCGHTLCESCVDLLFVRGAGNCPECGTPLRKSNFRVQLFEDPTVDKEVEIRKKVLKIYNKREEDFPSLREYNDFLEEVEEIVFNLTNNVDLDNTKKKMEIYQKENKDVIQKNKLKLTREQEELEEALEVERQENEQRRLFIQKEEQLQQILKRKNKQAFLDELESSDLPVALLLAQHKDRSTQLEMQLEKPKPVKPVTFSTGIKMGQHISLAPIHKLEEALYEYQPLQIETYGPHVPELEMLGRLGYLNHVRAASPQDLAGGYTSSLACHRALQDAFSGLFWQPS
Chain of Human CDK12 wt/CycK (Q9NYV4 whole entry): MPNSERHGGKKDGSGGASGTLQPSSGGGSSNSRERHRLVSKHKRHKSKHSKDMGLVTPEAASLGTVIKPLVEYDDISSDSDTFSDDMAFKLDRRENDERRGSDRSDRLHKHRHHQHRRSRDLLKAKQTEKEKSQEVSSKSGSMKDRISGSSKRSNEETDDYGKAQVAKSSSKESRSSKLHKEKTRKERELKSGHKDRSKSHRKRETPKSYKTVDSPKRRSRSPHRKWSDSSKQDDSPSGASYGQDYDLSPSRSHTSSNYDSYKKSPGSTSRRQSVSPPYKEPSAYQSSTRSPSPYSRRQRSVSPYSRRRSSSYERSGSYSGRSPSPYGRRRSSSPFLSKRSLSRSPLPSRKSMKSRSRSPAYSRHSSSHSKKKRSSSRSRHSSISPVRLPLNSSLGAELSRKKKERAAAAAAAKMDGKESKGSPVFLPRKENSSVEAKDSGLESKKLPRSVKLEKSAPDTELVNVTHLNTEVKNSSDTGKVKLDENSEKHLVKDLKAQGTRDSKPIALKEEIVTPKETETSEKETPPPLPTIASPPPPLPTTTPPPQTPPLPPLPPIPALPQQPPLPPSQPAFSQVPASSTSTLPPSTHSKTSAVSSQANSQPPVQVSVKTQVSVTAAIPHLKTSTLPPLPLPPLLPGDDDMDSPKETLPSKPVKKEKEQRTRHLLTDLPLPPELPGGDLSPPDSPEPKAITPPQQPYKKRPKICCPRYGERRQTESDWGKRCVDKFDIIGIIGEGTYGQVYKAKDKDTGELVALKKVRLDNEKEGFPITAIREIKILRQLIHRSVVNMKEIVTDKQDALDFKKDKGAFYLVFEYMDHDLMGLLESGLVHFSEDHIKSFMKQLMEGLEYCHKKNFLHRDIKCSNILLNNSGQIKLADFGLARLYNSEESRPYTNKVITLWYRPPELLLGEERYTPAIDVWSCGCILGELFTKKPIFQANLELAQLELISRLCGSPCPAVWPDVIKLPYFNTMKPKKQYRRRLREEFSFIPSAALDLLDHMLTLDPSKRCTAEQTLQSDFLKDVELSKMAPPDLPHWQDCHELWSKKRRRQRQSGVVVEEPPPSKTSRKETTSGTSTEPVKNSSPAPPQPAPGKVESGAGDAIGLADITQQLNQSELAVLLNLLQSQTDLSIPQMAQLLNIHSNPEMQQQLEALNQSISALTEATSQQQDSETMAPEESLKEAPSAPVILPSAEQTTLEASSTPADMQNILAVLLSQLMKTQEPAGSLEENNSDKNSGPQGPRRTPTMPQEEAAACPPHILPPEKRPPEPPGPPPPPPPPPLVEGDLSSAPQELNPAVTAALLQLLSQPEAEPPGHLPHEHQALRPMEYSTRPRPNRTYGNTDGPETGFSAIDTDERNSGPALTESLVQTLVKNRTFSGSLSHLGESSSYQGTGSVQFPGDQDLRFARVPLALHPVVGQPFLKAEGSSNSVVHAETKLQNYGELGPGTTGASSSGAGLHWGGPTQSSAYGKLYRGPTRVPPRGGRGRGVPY
Chain of Human CDK12 wt/CycK (O75909 whole entry partner): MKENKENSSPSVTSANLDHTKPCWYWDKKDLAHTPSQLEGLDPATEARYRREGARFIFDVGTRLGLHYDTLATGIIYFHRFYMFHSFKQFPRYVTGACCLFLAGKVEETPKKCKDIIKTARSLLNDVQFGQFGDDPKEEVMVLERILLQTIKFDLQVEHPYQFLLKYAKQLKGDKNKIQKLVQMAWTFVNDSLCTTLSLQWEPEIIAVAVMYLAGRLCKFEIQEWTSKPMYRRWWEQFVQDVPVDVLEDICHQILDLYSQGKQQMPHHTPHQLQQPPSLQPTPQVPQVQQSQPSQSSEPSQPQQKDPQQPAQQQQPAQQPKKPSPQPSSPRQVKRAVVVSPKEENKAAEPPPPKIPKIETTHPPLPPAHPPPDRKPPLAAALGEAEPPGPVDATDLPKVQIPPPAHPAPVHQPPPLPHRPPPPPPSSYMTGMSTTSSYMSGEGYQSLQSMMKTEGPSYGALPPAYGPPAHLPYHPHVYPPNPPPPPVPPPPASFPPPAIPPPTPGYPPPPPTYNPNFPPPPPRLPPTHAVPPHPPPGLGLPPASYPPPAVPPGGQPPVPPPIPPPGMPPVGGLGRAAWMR

CN(C)C/C=C/C(=O)Nc1ccc(C(=O)N2CCC[C@@H](Nc3ncc(Cl)c(-c4c[nH]c5ccccc45)n3)C2)cc1 [THZ-531]
IC50 (HeLa and A549 cells; derived from published data in HeLa and A549 cells, read-out: Cellular Potency IC50): 0.21 µM
Ratio of Biochemical Potency: Cellular Potency (HeLa and A549 cells; derived from published data): 0.74
Cyclin K Degrader Activity (Cyclin K [1]; Table 2, derived from published data in HeLa and A549 cells): −
Cyclin K degradation (in words) (Cyclin K [1]): not cyclin K degraders; also recorded: did not cause cyclin K degradation

CCc1cnn2c(NCc3ccc[n+]([O-])c3)cc(N3CCCC[C@H]3CCO)nc12 [Dinaciclib, reference compound]
Cyclin K degradation (in words) (Cyclin K [2]): not cyclin K degraders
Cyclin K Degrader Activity (Cyclin K [2]): −

Cc1cccn2cc(CNc3cc(NC[C@H]4CCNC[C@@H]4O)nc4c(C(C)C)cnn34)nc12 [H-APPAMP-004, (3R,4R)-4-(((3-isopropyl-7-(((8-methylimidazo[1,2-a]pyridin-2-yl)methyl)amino)pyrazolo[1,5-a]pyrimidin-5-yl)amino)methyl)piperidin-3-ol]
Cyclin K Degrader Activity (Cyclin K [2]): ++
IC50 (Human CDK12 wt/CycK; [3]): 0.0517 µM
CDK7/CDK12 (Human CDK12 wt/CycK; Table 1): 5.90
IC50 (Human CDK12 wt/CycK; [4]): 0.055 µM
IC50 (Human CDK12 wt/CycK; [5]): 0.051 µM
IC50 (Human CDK7/CycH/MAT1): 0.305 µM
IC50 (A673 cells; A673, Table 2): 8.9 nM
IC50 (A673 cells; A673, Table 3): 12 nM
Ratio of Biochemical Potency: Cellular Potency (A673 cells; Table 2): 6.2
Ratio of Biochemical Potency: Cellular Potency (A673 cells; [6]): 4.2

CC(C)c1cnn2c(NCc3nc4cc(C5CC5)ccn4n3)cc(NC[C@H]3CCNC[C@@H]3O)nc12 [H-APPAMP-044, (3R,4R)-4-(((7-(((7-cyclopropyl-[1,2,4]triazolo[1,5-a]pyridin-2-yl)methyl)amino)-3-isopropylpyrazolo[1,5-a]pyrimidin-5-yl)amino)methyl)piperidin-3-ol]
Cyclin K Degrader Activity (Cyclin K [2]): +
IC50 (Human CDK12 wt/CycK; [3]): 0.04 µM
CDK7/CDK12 (Human CDK12 wt/CycK; Table 1): 6.7
IC50 (Human CDK12 wt/CycK; [4]): 0.04 µM
IC50 (Human CDK12 wt/CycK; [5]): 0.04 µM
IC50 (Human CDK7/CycH/MAT1): 0.269 µM
IC50 (A673 cells; A673, Table 2): 44 nM
IC50 (A673 cells; A673, Table 3): 44 nM
Ratio of Biochemical Potency: Cellular Potency (A673 cells; Table 2): 0.91
Ratio of Biochemical Potency: Cellular Potency (A673 cells; [6]): 0.91

O[C@H]1CNCC[C@@H]1CNc1cc(NCc2cn3ccc(-c4ccccc4)cc3n2)n2ncc(C3CC3)c2n1 [H-APPAMP-045, (3R,4R)-4-(((3-cyclopropyl-7-(((7-phenylimidazo[1,2-a]pyridin-2-yl)methyl)amino)pyrazolo[1,5-a]pyrimidin-5-yl)amino)methyl)piperidin-3-ol]
Cyclin K Degrader Activity (Cyclin K [2]): −
IC50 (Human CDK12 wt/CycK; [3]): 0.018 µM
CDK7/CDK12 (Human CDK12 wt/CycK; Table 1): 27.6
IC50 (Human CDK12 wt/CycK; [4]): 0.018 µM
IC50 (Human CDK12 wt/CycK; [5]): 0.018 µM
IC50 (Human CDK7/CycH/MAT1): 0.496 µM
IC50 (A673 cells; A673, Table 2): 110 nM
IC50 (A673 cells; A673, Table 3): 110 nM
Ratio of Biochemical Potency: Cellular Potency (A673 cells; Table 2): 0.16
Ratio of Biochemical Potency: Cellular Potency (A673 cells; [6]): 0.16

Cc1cccc2nc(CNc3cc(NC[C@H]4CCNC[C@@H]4O)nc4c(C5CC5)cnn34)cn12 [H-APPAMP-025, (3R,4R)-4-(((3-cyclopropyl-7-(((5-methylimidazo[1,2-a]pyridin-2-yl)methyl)amino)pyrazolo[1,5-a]pyrimidin-5-yl)amino)methyl)piperidin-3-ol]
Cyclin K Degrader Activity (Cyclin K [2]): +++
IC50 (Human CDK12 wt/CycK; [3]): 0.036 µM
CDK7/CDK12 (Human CDK12 wt/CycK; Table 1): 9.3
IC50 (Human CDK12 wt/CycK; [4]): 0.036 µM
IC50 (Human CDK12 wt/CycK; [5]): 0.036 µM
IC50 (Human CDK7/CycH/MAT1): 0.334 µM
IC50 (A673 cells; A673, Table 2): 1.5 nM
IC50 (A673 cells; A673, Table 3): 1.5 nM
Ratio of Biochemical Potency: Cellular Potency (A673 cells; Table 2): 23
Ratio of Biochemical Potency: Cellular Potency (A673 cells; [6]): 23

CC[C@H](CO)Nc1nc(NCc2ccc(-c3ccccn3)cc2)c2ncn(C(C)C)c2n1 [CR8]
Cyclin K degradation (in words) (Cyclin K [1]): cause Cyclin K degradation

Cc1cc(C)n2cc(CNc3cc(NC[C@H]4CCNC[C@@H]4O)nc4c(C(C)C)cnn34)nc2n1 [H-APPAMP-043, (3R,4R)-4-(((7-(((5,7-dimethylimidazo[1,2-a]pyrimidin-2-yl)methyl)amino)-3-isopropylpyrazolo[1.5-a]pyrimidin-5-yl)amino)methyl)piperidin-3-ol]
Cyclin K Degrader Activity (Cyclin K [2]): −
IC50 (Human CDK12 wt/CycK; [3]): 0.021 µM
CDK7/CDK12 (Human CDK12 wt/CycK; Table 1): 23
IC50 (Human CDK12 wt/CycK; [4]): 0.021 µM
IC50 (Human CDK12 wt/CycK; [5]): 0.021 µM
IC50 (Human CDK7/CycH/MAT1): 0.484 µM
IC50 (A673 cells; A673, Table 2): 340 nM
IC50 (A673 cells; A673, Table 3): 340 nM
Ratio of Biochemical Potency: Cellular Potency (A673 cells; Table 2): 0.06
Ratio of Biochemical Potency: Cellular Potency (A673 cells; [6]): 0.06

CC(C)Oc1cccc2nc(CNc3cc(NC[C@H]4CCNC[C@@H]4O)nc4c(C5CC5)cnn34)cn12 [H-APPAMP-041, (3R,4R)-4-(((3-cyclopropyl-7-(((5-isopropoxyimidazo[1,2-a]pyridin-2-yl)methyl)amino)pyrazolo[1,5-a]pyrimidin-5-yl)amino)methyl)piperidin-3-ol]
IC50 (Human CDK12 wt/CycK; [3]): 0.046 µM
CDK7/CDK12 (Human CDK12 wt/CycK; Table 1): 14.1
IC50 (Human CDK12 wt/CycK; [5]): 0.046 µM
IC50 (Human CDK7/CycH/MAT1): 0.65 µM
IC50 (A673 cells; A673, Table 3): 9.8 nM
Ratio of Biochemical Potency: Cellular Potency (A673 cells; [6]): 4.7

CC(C)c1cnn2c(NCc3cn4cccnc4n3)cc(NC[C@H]3CCNC[C@@H]3O)nc12 [H-APPAMP-002, (3R,4R)-4-(((7-((imidazo[1,2-a]pyrimidin-2-ylmethyl)amino)-3-isopropylpyrazolo[1,5-a]pyrimidin-5-yl)amino)methyl)piperidin-3-ol]
IC50 (Human CDK12 wt/CycK; [3]): 0.0715 µM
CDK7/CDK12 (Human CDK12 wt/CycK; Table 1): 9.85
IC50 (Human CDK12 wt/CycK; [5]): 0.071 µM
IC50 (Human CDK7/CycH/MAT1): 0.704 µM
IC50 (A673 cells; A673, Table 3): 716 nM
Ratio of Biochemical Potency: Cellular Potency (A673 cells; [6]): 0.1

CCc1cnn2c(NCc3cn4c(C)cccc4n3)cc(NC[C@H]3CCNC[C@@H]3O)nc12 [H-APPAMP-031, (3R,4R)-4-(((3-ethyl-7-(((5-methylimidazo[1,2-a]pyridin-2-yl)methyl)amino)pyrazolo[1,5-a]pyrimidin-5-yl)amino)methyl)piperidin-3-ol]
IC50 (Human CDK12 wt/CycK; [3]): 0.024 µM
CDK7/CDK12 (Human CDK12 wt/CycK; Table 1): 38.3
IC50 (Human CDK12 wt/CycK; [5]): 0.024 µM
IC50 (Human CDK7/CycH/MAT1): 0.919 µM
IC50 (A673 cells; A673, Table 3): 2.2 nM
Ratio of Biochemical Potency: Cellular Potency (A673 cells; [6]): 11
